Experimental data: patent publication US20250152688A1 (priority 2021, published 2025)
Entries after “also recorded” stand apart in the source; their conditions may differ. Where two headings read alike, the source gives them in different places.

Key:
[1] = system: peripheral blood mononuclear cells (PBMCs); type: in vivo, human; conditions: for Patients with immune response against the peptide / UV1 mix: 51 evaluable patients vaccinated with UV1 (NSCLC, prostate cancer, malignant melanoma)
[2] = system: T-cell clones derived from patients that responded to UV1 vaccination; type: cell-based, human; conditions: T-cell clones from UV1 responders tested with overlapping 14-mer peptides
[3] = system: B6.129S2-H2-Ab1tm1GruTg(HLADRA/H2-Ea,HLA-DRB1*0401/H2-Eb)1Kito strain mice; type: in vivo; conditions: HLA-DR4 mice
[4] = system: J76 cells transfected with UT1, a TCR specific for SEQ ID NO: 1; type: cell-based, human; conditions: 0.5, 1.5 and 5 μM (conjugates in second experiment 0.5, 1.5 and 3 μM); 24 hours; EBV cells as APC
[5] = system: peripheral blood mononuclear cells (PMBCs); type: cell-based, human
[6] = system: HLA-A2/DR1 transgenic mice; type: in vivo
[7] = system: transgenic HLA-A2/HLA-DR1 animals; type: in vivo, mice; conditions: Group 1: MTTE-OVA then CD29 60 μg (4.1 nmol); Group 2: UV34 14 μg (4.1 nmol) in IFA; prime-boost-boost; p=0.0286

In the case of “ALFSVLNYERARRPGLLGASVLGLDDIHRA [p719-20]”, the “Patients with immune response against the peptide / UV1 mix” value [1] is reported as 65%, the “Patients with immune response against the peptide / UV1 mix” value ([1]; listed as SEQ ID NO. 1) is reported as 65% and the “Percentage of patients carrying the allele who responded to SEQ ID NO. 1” value (“Percentage … to SEQ ID NO. 1” for short) ([1]; HLA-DPB1*01:01) is reported as 14%. For the same sequence, the “Percentage … to SEQ ID NO. 1” value ([1]; HLA-DPB1*04:01) was 64%, the “Percentage … to SEQ ID NO. 1” value ([1]; HLA-DPB1*04:02) was 71% and the “Percentage … to SEQ ID NO. 1” value ([1]; HLA-DQB1*03:02) was 46%. The “Percentage … to SEQ ID NO. 1” value ([1]; HLA-DQB1*05:01) was 67%, the “Percentage … to SEQ ID NO. 1” value ([1]; HLA-DQB1*06:02) was 72% and the “Percentage … to SEQ ID NO. 1” value ([1]; HLA-DRB1*04:01) was 50%. For the same sequence, the “Percentage … to SEQ ID NO. 1” value ([1]; HLA-DRB1*07:01) was 90%, the “Percentage … to SEQ ID NO. 1” value ([1]; HLA-DRB1*15:01) was 89% and the “Responders in 7 of the 9 most common HLA class II haplotypes” value ([1]; UV1-vaccinated patients) was greater than 50%. The “Number of patients that recognised this one peptide only” value ([1]; patients vaccinated with UV1) was 13, the “Responding patients / evaluable patients” value ([1]; patients vaccinated with UV1, response against the labelled peptide / mix) was “(33/51)” and the “HLA Class II allele, T-cell clone recognising the peptide” value [2] was “All clones”. The Responding mice ([3]; 22 nmol dose) was “all mice appear to respond”, the “IFN-γ ELISpot spots on restimulation with SEQ ID NO: 1” value ([3]; 30 μg (9 nmol) with CpG 1826 25 μg in IFA, prime boost, n=8) was “significant increase in the number of spots compared to cells alone” and the “GFP-expressing T-cells specific for SEQ ID NO: 1 (T-cell activation)” value [4] was “activate the T cells equally well”.

With “LSEAEVRQHREARPALLTSRLRFIPKPDGL [SEQ ID NO: 116]” the “Total of positive patients over peptides sharing at least 8 amino acids with the polypeptide” value ([5]; GV1001 (n=4) + DC (n=3) vaccinated patients) was “Total = 20”, the “SUM of T-cell responses to peptides embedded in the polypeptide” value (shortened to “SUM of T-cell responses”) ([5]; Vaccination DC (n = 3)) was 8 and the “SUM of T-cell responses” value ([5]; Vaccination GV1001 (n = 4)) was 12. For the same sequence, the “SUM of T-cell responses” value ([5]; Vaccination GV1001 + DC (n = 4 + 3)) was 20, the “Immunogenicity in HLA-A2/DR1 transgenic mice (conclusion)” value ([6]; 16.4 nmol peptide with standard adjuvant) was “highly immunogenic” and the “Peptides above the threshold (T cell responses against individual peptides)” value ([6]; 16.4 nmol peptide, female HLA-A2/DR1 mice (n=4), cut off = cells alone) was “UV36, UV57, UV58, UV59, UV60, UV64 and UV66”. For the same sequence, the “Peptide recognition by individual vaccinated mice (ELISpot)” value ([6]; 16.4 nmol, mice M9-M12 GV1001 group, M13-M16 UV34 group) was “Mouse M16 displayed marginal immune responses against UV57; also recorded: Mouse M15 responded somewhat more broadly and recognized UV58; also recorded: Cells from this mouse also responded to UV59; also recorded: Peptide UV60 was also recognized; also recorded: They both recognized UV36, UV57, UV58, UV64 and UV66; also recorded: also recognized UV59 and UV60” and the “Anti-MTTE antibody titers at the end of the experiment” value [7] was “not able to mount an antibody response to the MTTE sequence”.
